Activity calls are given as the source filed them. The rule behind the calls is not given here.

Experiment [1] concerns the target Vascular endothelial growth factor receptor 2 (Homo sapiens) (UniProt P35968). In words: Inhibition of VEGFR2 at 10 uM.
The target of experiment [2] is BDNF/NT-3 growth factors receptor (Homo sapiens) (UniProt Q16620). In words: Inhibition of TRKB at 10 uM.
The subject of experiment [3] is Serine/threonine-protein kinase B-raf (Homo sapiens), P15056 [V600E]. In words: Inhibition of BRAF V600E mutant at 10 uM.
The target of experiment [4] is Serine/threonine-protein kinase PLK1 (Homo sapiens) (UniProt P53350). As to the kind of experiment: Inhibition of PLK1 at 10 uM.
Experiment [5] addresses Casein kinase II subunit alpha (Homo sapiens) (UniProt P68400). As to the kind of experiment: Inhibition of CK2alpha1 at 10 uM.
Experiment [6] concerns the target Insulin-like growth factor 1 receptor (Homo sapiens) (UniProt P08069). As to the kind of experiment: Inhibition of IGF1R at 10 uM.
In experiment [7] the target is Tyrosine-protein kinase receptor UFO (Homo sapiens) (UniProt P30530). In words: Inhibition of AXL at 10 uM.
Experiment [8] deals with T1, Serine/threonine-protein kinase PLK4 (Homo sapiens) (UniProt O00444).
T1 sequence (whole entry): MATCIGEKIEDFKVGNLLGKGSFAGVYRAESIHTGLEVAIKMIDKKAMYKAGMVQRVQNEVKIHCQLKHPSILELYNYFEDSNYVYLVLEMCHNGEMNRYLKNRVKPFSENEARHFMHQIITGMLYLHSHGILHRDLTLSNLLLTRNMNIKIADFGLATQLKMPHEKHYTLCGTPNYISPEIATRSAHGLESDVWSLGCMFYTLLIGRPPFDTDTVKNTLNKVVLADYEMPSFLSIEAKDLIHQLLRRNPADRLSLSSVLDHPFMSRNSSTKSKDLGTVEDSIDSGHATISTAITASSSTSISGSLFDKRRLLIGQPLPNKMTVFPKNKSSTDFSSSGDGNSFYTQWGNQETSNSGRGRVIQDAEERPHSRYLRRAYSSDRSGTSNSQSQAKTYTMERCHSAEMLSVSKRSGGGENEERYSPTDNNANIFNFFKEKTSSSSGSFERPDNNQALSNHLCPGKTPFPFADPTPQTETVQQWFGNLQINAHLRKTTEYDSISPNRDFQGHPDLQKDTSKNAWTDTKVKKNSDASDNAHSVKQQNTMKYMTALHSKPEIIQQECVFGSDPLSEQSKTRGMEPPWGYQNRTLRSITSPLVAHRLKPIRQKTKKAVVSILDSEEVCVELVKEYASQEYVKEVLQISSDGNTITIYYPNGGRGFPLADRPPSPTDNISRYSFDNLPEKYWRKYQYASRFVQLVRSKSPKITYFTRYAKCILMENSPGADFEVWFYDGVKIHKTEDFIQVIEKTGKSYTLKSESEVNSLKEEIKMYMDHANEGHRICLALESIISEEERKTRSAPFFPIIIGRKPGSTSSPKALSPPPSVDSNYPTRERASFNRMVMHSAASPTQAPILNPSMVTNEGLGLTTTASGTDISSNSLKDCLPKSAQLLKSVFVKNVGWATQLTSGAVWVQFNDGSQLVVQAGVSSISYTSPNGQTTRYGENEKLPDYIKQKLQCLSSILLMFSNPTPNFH
As to the kind of experiment: Inhibition of SAK at 10 uM.

Experiment [9] addresses Serine/threonine-protein kinase N1 (Homo sapiens) (UniProt Q16512). In words: Inhibition of PRK1 at 10 uM.
For experiment [10], the target named is T2, NUAK family SNF1-like kinase 1 (Homo sapiens) (UniProt O60285).
T2 sequence (whole entry): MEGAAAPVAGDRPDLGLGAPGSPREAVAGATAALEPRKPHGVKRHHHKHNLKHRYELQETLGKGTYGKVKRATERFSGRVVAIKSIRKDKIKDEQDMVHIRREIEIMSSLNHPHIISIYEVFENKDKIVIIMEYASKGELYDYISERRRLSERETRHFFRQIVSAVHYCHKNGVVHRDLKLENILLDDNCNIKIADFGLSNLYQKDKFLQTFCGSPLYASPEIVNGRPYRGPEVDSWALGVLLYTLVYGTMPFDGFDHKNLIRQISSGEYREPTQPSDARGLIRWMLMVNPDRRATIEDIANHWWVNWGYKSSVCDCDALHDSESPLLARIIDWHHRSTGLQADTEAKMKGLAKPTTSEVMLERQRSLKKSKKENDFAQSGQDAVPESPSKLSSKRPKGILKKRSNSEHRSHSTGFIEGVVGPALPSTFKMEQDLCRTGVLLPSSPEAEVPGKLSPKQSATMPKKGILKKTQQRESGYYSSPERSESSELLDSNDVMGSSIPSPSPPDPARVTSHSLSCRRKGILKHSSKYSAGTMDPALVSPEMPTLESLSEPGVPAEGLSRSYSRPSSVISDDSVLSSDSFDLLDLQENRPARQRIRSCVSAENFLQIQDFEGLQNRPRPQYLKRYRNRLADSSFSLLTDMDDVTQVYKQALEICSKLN
In words: Inhibition of ARK5 at 10 uM.

Experiment [11] addresses T3, Mitogen-activated protein kinase 14 (Homo sapiens, UniProt Q16539). In words: Inhibition of p38alpha-dependent TNFalpha production in human whole blood.
The target in experiment [12] is Aurora kinase B (Homo sapiens) (UniProt Q96GD4). In words: Inhibition of AuroraB at 10 uM.
The target in experiment [13] is RAC-alpha serine/threonine-protein kinase (Homo sapiens) (UniProt P31749). As to the kind of experiment: Inhibition of AKT1 at 10 uM.
Experiment [14] deals with T3, Mitogen-activated protein kinase 14. In words: Inhibition of p38alpha by immunosorbent based kinase assay.
For experiment [15], the target named is Hepatocyte growth factor receptor (Homo sapiens) (UniProt P08581). In words: Inhibition of MET at 10 uM.
Experiment [16] concerns the target Insulin receptor (Homo sapiens) (UniProt P06213). As to the kind of experiment: Inhibition of INSR at 10 uM.
The target in experiment [17] is Proto-oncogene tyrosine-protein kinase Src (Homo sapiens) (UniProt P12931). As to the kind of experiment: Inhibition of SRC at 10 uM.
The target of experiment [18] is Focal adhesion kinase 1 (Homo sapiens) (UniProt Q05397). In words: Inhibition of FAK at 10 uM.
Focal adhesion kinase 1 (Homo sapiens), sequence (Q05397 2-1052 limits assumed): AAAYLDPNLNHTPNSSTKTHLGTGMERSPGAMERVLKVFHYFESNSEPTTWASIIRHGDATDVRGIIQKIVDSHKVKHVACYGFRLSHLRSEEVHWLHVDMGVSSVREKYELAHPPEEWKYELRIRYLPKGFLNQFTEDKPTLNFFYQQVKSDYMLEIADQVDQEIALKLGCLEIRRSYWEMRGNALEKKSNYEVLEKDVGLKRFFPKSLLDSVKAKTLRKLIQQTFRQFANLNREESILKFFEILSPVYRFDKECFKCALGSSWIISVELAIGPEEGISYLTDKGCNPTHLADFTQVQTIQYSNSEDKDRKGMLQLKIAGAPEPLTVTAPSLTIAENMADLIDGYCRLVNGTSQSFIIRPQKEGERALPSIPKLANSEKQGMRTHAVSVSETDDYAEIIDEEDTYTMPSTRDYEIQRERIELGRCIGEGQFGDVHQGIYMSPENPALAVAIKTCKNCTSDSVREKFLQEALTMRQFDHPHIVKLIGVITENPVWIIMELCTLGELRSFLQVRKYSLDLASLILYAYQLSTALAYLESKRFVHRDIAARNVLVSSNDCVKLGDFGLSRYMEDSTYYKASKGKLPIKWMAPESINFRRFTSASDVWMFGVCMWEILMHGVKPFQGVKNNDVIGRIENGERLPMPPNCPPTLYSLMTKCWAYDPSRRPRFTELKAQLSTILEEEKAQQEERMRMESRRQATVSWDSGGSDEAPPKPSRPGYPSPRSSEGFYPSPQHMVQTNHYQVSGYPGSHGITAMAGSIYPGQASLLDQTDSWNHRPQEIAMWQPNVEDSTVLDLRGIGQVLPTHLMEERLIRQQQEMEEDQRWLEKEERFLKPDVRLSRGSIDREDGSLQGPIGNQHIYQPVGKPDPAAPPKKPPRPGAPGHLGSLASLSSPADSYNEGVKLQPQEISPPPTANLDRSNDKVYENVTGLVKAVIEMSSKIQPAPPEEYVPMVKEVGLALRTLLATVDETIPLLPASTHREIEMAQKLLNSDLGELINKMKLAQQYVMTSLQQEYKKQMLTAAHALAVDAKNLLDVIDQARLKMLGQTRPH

Serine/threonine-protein kinase PLK1 (Homo sapiens), sequence (P53350 whole entry): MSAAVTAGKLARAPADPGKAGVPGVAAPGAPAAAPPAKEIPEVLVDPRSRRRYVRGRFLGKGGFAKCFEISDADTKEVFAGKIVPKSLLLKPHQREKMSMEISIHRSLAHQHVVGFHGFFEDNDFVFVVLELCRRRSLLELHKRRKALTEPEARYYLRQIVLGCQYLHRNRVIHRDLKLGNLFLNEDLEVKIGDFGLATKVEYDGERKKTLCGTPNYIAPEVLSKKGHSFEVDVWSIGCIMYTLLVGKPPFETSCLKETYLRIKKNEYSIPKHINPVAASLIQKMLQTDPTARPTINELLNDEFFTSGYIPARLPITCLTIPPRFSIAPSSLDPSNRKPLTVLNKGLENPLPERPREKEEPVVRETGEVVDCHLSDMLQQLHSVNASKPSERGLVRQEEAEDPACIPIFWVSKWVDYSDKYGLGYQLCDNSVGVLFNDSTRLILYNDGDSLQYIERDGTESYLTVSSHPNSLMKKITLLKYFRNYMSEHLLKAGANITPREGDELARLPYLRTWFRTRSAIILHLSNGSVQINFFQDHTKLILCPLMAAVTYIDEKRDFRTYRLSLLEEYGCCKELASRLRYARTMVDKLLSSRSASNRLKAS
Serine/threonine-protein kinase B-raf (Homo sapiens), P15056 [V600E], sequence (P15056 whole entry V600E): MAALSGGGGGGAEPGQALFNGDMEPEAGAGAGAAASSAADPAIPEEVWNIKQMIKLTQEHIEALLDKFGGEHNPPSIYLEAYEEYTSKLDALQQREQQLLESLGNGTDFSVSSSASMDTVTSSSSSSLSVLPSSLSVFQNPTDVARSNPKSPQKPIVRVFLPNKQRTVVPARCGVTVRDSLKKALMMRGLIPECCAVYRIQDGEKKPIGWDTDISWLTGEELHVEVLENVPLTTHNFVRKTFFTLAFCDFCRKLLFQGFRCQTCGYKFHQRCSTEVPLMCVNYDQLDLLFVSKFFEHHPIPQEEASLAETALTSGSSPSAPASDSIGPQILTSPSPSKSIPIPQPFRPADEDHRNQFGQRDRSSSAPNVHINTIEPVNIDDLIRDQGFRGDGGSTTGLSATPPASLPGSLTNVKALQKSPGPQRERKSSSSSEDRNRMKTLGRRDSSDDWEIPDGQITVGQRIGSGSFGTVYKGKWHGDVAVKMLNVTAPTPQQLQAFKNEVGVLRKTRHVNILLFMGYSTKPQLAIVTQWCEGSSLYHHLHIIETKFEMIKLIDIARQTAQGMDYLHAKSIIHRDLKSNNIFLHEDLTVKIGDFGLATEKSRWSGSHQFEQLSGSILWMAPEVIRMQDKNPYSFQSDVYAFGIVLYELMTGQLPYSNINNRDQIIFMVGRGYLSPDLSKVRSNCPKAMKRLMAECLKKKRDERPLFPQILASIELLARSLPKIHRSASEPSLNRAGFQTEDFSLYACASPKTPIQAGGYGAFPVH
BDNF/NT-3 growth factors receptor (Homo sapiens), sequence (Q16620 32-822 limits assumed): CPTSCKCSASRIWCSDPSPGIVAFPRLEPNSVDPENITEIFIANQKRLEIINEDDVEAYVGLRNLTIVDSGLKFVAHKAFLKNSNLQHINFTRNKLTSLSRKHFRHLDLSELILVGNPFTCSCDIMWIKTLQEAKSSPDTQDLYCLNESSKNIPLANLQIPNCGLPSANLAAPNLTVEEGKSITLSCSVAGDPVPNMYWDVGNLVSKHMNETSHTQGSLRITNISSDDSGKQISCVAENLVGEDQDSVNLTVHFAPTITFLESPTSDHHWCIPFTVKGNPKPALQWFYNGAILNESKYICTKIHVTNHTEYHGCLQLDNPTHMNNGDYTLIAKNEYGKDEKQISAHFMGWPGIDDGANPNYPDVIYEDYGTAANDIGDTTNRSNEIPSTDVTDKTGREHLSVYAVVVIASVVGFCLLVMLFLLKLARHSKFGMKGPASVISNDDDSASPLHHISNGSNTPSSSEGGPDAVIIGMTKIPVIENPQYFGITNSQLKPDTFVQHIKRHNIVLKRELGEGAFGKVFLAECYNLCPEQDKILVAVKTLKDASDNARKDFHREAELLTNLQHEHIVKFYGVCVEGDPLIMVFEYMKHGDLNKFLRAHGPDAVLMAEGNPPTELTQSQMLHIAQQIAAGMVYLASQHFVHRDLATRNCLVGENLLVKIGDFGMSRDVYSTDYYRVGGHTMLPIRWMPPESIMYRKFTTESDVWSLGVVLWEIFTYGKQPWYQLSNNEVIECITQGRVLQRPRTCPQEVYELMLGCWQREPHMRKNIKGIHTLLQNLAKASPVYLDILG
Serine/threonine-protein kinase N1 (Homo sapiens), sequence (Q16512 2-942 limits assumed): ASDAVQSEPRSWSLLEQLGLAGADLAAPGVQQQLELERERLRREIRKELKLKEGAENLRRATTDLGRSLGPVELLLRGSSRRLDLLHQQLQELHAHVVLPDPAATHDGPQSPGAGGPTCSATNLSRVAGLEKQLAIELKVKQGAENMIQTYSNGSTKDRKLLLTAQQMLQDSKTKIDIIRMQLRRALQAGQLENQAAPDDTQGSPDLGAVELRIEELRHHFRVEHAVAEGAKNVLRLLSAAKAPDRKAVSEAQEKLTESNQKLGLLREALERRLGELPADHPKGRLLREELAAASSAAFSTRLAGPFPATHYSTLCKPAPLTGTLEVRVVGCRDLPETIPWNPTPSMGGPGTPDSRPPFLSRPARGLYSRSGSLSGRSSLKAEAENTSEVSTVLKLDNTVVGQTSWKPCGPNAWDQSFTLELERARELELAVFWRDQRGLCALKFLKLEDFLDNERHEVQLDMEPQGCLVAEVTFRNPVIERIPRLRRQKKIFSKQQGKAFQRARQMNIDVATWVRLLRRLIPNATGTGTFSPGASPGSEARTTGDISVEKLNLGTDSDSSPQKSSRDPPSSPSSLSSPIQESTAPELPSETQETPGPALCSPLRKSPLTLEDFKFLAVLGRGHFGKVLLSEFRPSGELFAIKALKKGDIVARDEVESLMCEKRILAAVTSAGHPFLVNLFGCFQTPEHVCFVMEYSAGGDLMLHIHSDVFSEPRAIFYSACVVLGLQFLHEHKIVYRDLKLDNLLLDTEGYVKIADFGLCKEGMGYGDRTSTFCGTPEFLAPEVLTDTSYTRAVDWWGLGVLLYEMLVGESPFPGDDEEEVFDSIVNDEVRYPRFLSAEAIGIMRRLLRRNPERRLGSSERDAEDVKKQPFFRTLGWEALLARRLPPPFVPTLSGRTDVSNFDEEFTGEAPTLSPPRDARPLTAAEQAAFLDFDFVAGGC
Tyrosine-protein kinase receptor UFO (Homo sapiens), sequence (P30530 whole entry): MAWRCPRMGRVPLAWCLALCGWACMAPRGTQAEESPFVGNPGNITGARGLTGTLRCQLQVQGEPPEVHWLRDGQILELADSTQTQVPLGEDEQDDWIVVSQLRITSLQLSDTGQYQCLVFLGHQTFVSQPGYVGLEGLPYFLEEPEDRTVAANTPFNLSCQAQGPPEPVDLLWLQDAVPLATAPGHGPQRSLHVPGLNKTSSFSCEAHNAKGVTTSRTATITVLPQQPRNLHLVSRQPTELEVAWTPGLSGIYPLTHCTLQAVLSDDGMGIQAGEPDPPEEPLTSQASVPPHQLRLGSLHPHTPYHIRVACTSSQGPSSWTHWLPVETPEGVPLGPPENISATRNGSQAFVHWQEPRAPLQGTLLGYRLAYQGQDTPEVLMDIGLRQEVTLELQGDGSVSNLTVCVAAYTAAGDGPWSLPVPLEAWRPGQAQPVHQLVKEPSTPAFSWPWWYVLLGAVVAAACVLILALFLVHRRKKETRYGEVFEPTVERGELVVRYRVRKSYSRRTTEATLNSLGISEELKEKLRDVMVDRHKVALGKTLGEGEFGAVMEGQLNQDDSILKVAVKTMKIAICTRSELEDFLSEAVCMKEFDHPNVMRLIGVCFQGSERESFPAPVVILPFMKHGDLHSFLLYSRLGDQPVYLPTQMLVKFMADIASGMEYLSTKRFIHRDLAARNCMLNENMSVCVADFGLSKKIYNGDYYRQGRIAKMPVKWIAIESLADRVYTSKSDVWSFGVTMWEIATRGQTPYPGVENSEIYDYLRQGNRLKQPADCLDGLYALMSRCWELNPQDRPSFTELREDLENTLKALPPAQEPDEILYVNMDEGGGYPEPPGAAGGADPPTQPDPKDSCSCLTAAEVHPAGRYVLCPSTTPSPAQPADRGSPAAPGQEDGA

With `CC1(C)OC[C@@H](CCOc2ccc3c(c2)C(=O)c2ccc(Nc4ccc(F)cc4F)cc2CC3)O1`, the inhibition result in [1], in [2], in [3], in experiment [4], in experiment [5] and in experiment [6] was “inactive” each time. Moreover, the inhibition result in experiment [7], in [8], in experiment [9], in [10], in experiment [12] and in [13] was “inactive” throughout. In addition, the inhibition result in [15], in [16], in [17] and in experiment [18] was “inactive” each time. The IC50 in experiment [11] is 320 nM; in [14], 10 nM.
For the compound `COc1ccc2c(c1)C(=O)c1ccc(Nc3ccc(F)cc3Cl)cc1CC2`, the inhibition result in experiment [1], in experiment [2], in [3], in [4], in experiment [5] and in [6] was “inactive” in each case. Moreover, the inhibition result in experiment [7], in [8], in experiment [9], in [10], in experiment [12] and in experiment [13] was “inactive” in each case. Further, the inhibition result in experiment [15], in experiment [16], in [17] and in experiment [18] was “inactive” throughout. Further, the IC50 in [11] came to 5400 nM; in experiment [14], 40 nM.
For the compound `O=C1c2ccc(Nc3ccc(F)cc3F)cc2CCc2ccc(OCCCN3CCOCC3)cc21`, the inhibition result in experiment [1], in experiment [2], in [3], in experiment [4], in experiment [5] and in experiment [6] was “inactive” in each case. Further, the inhibition entry in [7], in experiment [8], in [9], in experiment [10], in [12] and in [13] was “inactive” each time. For the same compound, the inhibition entry in experiment [15], in experiment [16], in experiment [17] and in experiment [18] was “inactive” each time. Also, the IC50 in [11] was 80 nM; in experiment [14], 8 nM.
For the compound `CC1(C)OC[C@H](COc2ccc3c(c2)CCc2cc(Nc4ccc(F)cc4F)ccc2C3=O)O1`, the inhibition entry in experiment [1], in experiment [2], in experiment [3], in [4], in experiment [5] and in experiment [6] was “inactive” throughout. Besides, the inhibition result in [7], in [8], in experiment [9], in [10], in experiment [12] and in experiment [13] was “inactive” in each case. The inhibition entry in [15], in experiment [16], in [17] and in experiment [18] was “inactive” each time. Besides, the values for the half-maximal inhibitory concentration (IC50) in experiment [11] and in experiment [14] were 170000 nM and 20 nM, respectively.
For `COc1ccc2c(c1)C(=O)c1ccc(Nc3ccccc3C(F)(F)F)cc1CC2`, the inhibition entry in [1], in experiment [2], in experiment [3], in [4], in experiment [5] and in [6] was “inactive” in each case. For the same compound, the inhibition result in experiment [7], in [8], in experiment [9], in experiment [10], in experiment [12] and in experiment [13] was “inactive” throughout. Moreover, the inhibition result in experiment [15], in experiment [16], in experiment [17] and in experiment [18] was “inactive” in each case. Further, the results for the concentration for half-maximal inhibition (IC50) in experiment [11] and in [14] were 33600 nM and 400 nM, respectively.
As to `COc1ccc2c(c1)C(=O)c1ccc(Nc3ccccc3Cl)cc1CC2`, the inhibition entry in [1], in experiment [2], in experiment [3], in experiment [4], in experiment [5] and in experiment [6] was “inactive” in each case. Moreover, the inhibition entry in experiment [7], in experiment [8], in [9], in experiment [10], in [12] and in experiment [13] was “inactive” throughout. For the same compound, the inhibition result in experiment [15], in experiment [16], in experiment [17] and in experiment [18] was “inactive” in each case. Further, the IC50 in experiment [11] was 4600 nM; in experiment [14], 560 nM.
As for `COc1ccc2c(c1)C(=O)c1ccc(Nc3cc(F)cc(F)c3F)cc1CC2`, the inhibition result in experiment [1], in [2], in experiment [3], in experiment [4], in [5] and in [6] was “inactive” throughout. Further, the inhibition entry in [7], in experiment [8], in experiment [9], in [10], in experiment [12] and in experiment [13] was “inactive” each time. Further, the inhibition entry in experiment [15], in experiment [16], in [17] and in experiment [18] was “inactive” in each case. Also, the values for the IC50 in [11] and in [14] were 4300 nM and 50 nM, respectively.
